Source: patent US20250032388A1, “PERSONAL CARE COMPOSITIONS FOR SENSITIVE SKIN AND METHODS OF USE” (Galderma Holding SA, priority 2022, published 2025)

Tested on: NADPH oxidase
Assay: NADPH-oxidase activity in pollution-exposed fibroblasts (Example 6)
Type: cell-based, human
Protocol: Method: Cells are incubated for 30 minutes with the test elements (either pollutant or Composition A). NADPH oxidase activity is determined immediately using chemioluminescence. Conditions: Untreated and unexposed to pollution, Untreated and exposed to pollution and Treated with personal care composition and exposed to pollution. As a comparison to the personal care composition, niacinamide was tested at low concentration (“niacinamide (low)”) and high concentration (“niacinamide (high)”) in DMSO. (The high niacinamide concentration was 6.67 times the low niacinamide concentration.) Composition B was diluted until its niacinamide concentration was the same as the niacinamide (low) concentration. The cells used in the study were human primary fibroblasts originating from a healthy donor. As in Example 5, the pollutant was urban standardized particles composed with metals, polyaromatic hydrocarbons (PAHs), nitro-PAHs, PCBs, chlorinated pesticide, etc., of micrometric diameter. NADPH-oxidase activity and mitochondrial associated membranes (MAMs) were experimentally determined and quantified in the same manner as in Example 5.

NADPH oxidase activity relative to NE-NTC (niacinamide (high) concentration, 6.67 times the low): level below that observed in NE-NTC
Substance: niacinamide
NADPH oxidase activity relative to NE-NTC (niacinamide (low) concentration, Composition B diluted to the same niacinamide concentration): level similar to that observed in the NE-NTC
